Numbers after ± are expanded uncertainties.
Assays:
[1] = excess molar enthalpy (molar enthalpy of mixing); xn = mol fraction of the nth substance listed; conditions: 303.15 K, 101 kPa, Liquid, Calvet calorimetry
[2] = xn = mol fraction of the nth substance listed; conditions: 101 kPa, Liquid; for viscosity: Capillary tube (Ostwald / Ubbelohde) method; for mass density: Vibrating tube method

CCOC(=O)OCC [diethyl carbonate] + CCCCCCCCO
[1]
Conditions	excess molar enthalpy [kcal/mol]
x1 = 0.09134	0.176 ± 0.00382
x1 = 0.1276	0.236 ± 0.00502
x1 = 0.1764	0.31 ± 0.00669
x1 = 0.2484	0.394 ± 0.00837
x1 = 0.3155	0.46 ± 0.0098
x1 = 0.374	0.5 ± 0.0108
x1 = 0.4304	0.528 ± 0.0112
x1 = 0.491	0.544 ± 0.0117
x1 = 0.5699	0.542 ± 0.0115
x1 = 0.6268	0.529 ± 0.0112
x1 = 0.6895	0.499 ± 0.0108
x1 = 0.7492	0.455 ± 0.0098
x1 = 0.8111	0.387 ± 0.00837
x1 = 0.8705	0.298 ± 0.00645
x1 = 0.9357	0.167 ± 0.00359

[2]
Conditions	mass density [kg/m3]	viscosity [mPa·s]
288.15 K, x1 = 0.05879	834.94 ± 0.11	8.723 ± 0.081
288.15 K, x1 = 0.09178	838.6 ± 0.11	7.678 ± 0.071
288.15 K, x1 = 0.184	849.27 ± 0.11	5.521 ± 0.052
288.15 K, x1 = 0.2839	861.63 ± 0.1	3.992 ± 0.038
288.15 K, x1 = 0.4001	877.04 ± 0.1	2.876 ± 0.028
288.15 K, x1 = 0.5109	892.89 ± 0.09	2.157 ± 0.021
288.15 K, x1 = 0.598	906.21 ± 0.09	1.773 ± 0.017
288.15 K, x1 = 0.6927	921.66 ± 0.09	1.441 ± 0.014
288.15 K, x1 = 0.8073	941.89 ± 0.08	1.157 ± 0.011
288.15 K, x1 = 0.9275	965.14 ± 0.08	0.953 ± 0.009
288.15 K, x1 = 0.9531	970.42 ± 0.08	0.921 ± 0.009
293.15 K, x1 = 0.05259	830.75 ± 0.11	7.441 ± 0.069
293.15 K, x1 = 0.1047	836.45 ± 0.11	6.062 ± 0.057
293.15 K, x1 = 0.1967	847.03 ± 0.11	4.538 ± 0.043
293.15 K, x1 = 0.2955	859.15 ± 0.1	3.308 ± 0.032
293.15 K, x1 = 0.3964	872.38 ± 0.1	2.544 ± 0.024
293.15 K, x1 = 0.5031	887.37 ± 0.09	1.951 ± 0.019
293.15 K, x1 = 0.604	902.57 ± 0.09	1.573 ± 0.015
293.15 K, x1 = 0.6995	918.01 ± 0.09	1.285 ± 0.013
293.15 K, x1 = 0.8175	938.67 ± 0.08	1.039 ± 0.01
293.15 K, x1 = 0.9124	956.76 ± 0.08	0.9 ± 0.009
293.15 K, x1 = 0.9531	964.98 ± 0.08	0.853 ± 0.008
303.15 K, x1 = 0.05353	823.7 ± 0.12	5.282 ± 0.05
303.15 K, x1 = 0.1003	828.65 ± 0.11	4.522 ± 0.043
303.15 K, x1 = 0.1902	838.63 ± 0.11	3.432 ± 0.033
303.15 K, x1 = 0.3002	851.69 ± 0.1	2.536 ± 0.024
303.15 K, x1 = 0.4112	865.89 ± 0.1	1.928 ± 0.019
303.15 K, x1 = 0.5038	878.58 ± 0.1	1.584 ± 0.015
303.15 K, x1 = 0.5934	891.62 ± 0.09	1.32 ± 0.013
303.15 K, x1 = 0.6981	907.98 ± 0.09	1.075 ± 0.011
303.15 K, x1 = 0.8151	927.85 ± 0.08	0.884 ± 0.009
303.15 K, x1 = 0.9138	946.1 ± 0.08	0.773 ± 0.008
303.15 K, x1 = 0.9548	954.16 ± 0.08	0.74 ± 0.007
313.15 K, x1 = 0.05666	816.83 ± 0.12	3.842 ± 0.037
313.15 K, x1 = 0.1109	822.42 ± 0.12	3.267 ± 0.031
313.15 K, x1 = 0.1956	831.59 ± 0.11	2.59 ± 0.025
313.15 K, x1 = 0.2893	842.35 ± 0.11	2.054 ± 0.02
313.15 K, x1 = 0.4005	856.05 ± 0.1	1.585 ± 0.015
313.15 K, x1 = 0.5067	870.12 ± 0.1	1.273 ± 0.012
313.15 K, x1 = 0.6044	884.01 ± 0.09	1.059 ± 0.01
313.15 K, x1 = 0.7038	899.18 ± 0.09	0.893 ± 0.009
313.15 K, x1 = 0.8041	915.66 ± 0.09	0.766 ± 0.008
313.15 K, x1 = 0.9092	934.43 ± 0.08	0.672 ± 0.007
313.15 K, x1 = 0.954	942.96 ± 0.08	0.643 ± 0.006

CCOC(=O)OCC [diethyl carbonate] + CCCCCO
[1]
Conditions	excess molar enthalpy [kcal/mol]
x1 = 0.04842	0.0916 ± 0.00201
x1 = 0.085	0.156 ± 0.00335
x1 = 0.1521	0.251 ± 0.0055
x1 = 0.2122	0.326 ± 0.00693
x1 = 0.263	0.373 ± 0.00789
x1 = 0.3154	0.418 ± 0.00884
x1 = 0.3592	0.441 ± 0.00932
x1 = 0.4399	0.477 ± 0.0103
x1 = 0.4581	0.478 ± 0.0103
x1 = 0.5444	0.491 ± 0.0105
x1 = 0.64	0.47 ± 0.01
x1 = 0.6925	0.435 ± 0.00932
x1 = 0.7415	0.407 ± 0.0086
x1 = 0.7993	0.357 ± 0.00765
x1 = 0.8519	0.291 ± 0.00621
x1 = 0.9139	0.191 ± 0.00406

[2]
Conditions	mass density [kg/m3]	viscosity [mPa·s]
288.15 K, x1 = 0.05026	826.9 ± 0.12	3.879 ± 0.037
288.15 K, x1 = 0.106	836.4 ± 0.12	3.215 ± 0.031
288.15 K, x1 = 0.1881	850.28 ± 0.11	2.529 ± 0.025
288.15 K, x1 = 0.2879	866.92 ± 0.11	1.972 ± 0.019
288.15 K, x1 = 0.396	884.69 ± 0.1	1.595 ± 0.016
288.15 K, x1 = 0.4905	900.03 ± 0.09	1.355 ± 0.013
288.15 K, x1 = 0.5917	916.28 ± 0.09	1.182 ± 0.012
288.15 K, x1 = 0.7104	935.09 ± 0.08	1.03 ± 0.01
288.15 K, x1 = 0.8067	950.23 ± 0.08	0.948 ± 0.009
288.15 K, x1 = 0.896	964.17 ± 0.08	0.898 ± 0.009
288.15 K, x1 = 0.9607	974.25 ± 0.08	0.871 ± 0.009
293.15 K, x1 = 0.04854	822.8 ± 0.13	3.391 ± 0.033
293.15 K, x1 = 0.0572	824.25 ± 0.12	3.292 ± 0.032
293.15 K, x1 = 0.1071	832.6 ± 0.12	2.796 ± 0.027
293.15 K, x1 = 0.1988	847.85 ± 0.11	2.138 ± 0.021
293.15 K, x1 = 0.29	862.87 ± 0.11	1.725 ± 0.017
293.15 K, x1 = 0.398	880.41 ± 0.1	1.402 ± 0.014
293.15 K, x1 = 0.4939	895.79 ± 0.1	1.202 ± 0.012
293.15 K, x1 = 0.5998	912.55 ± 0.09	1.049 ± 0.01
293.15 K, x1 = 0.6968	927.7 ± 0.09	0.947 ± 0.009
293.15 K, x1 = 0.8009	943.91 ± 0.08	0.869 ± 0.009
293.15 K, x1 = 0.8902	957.76 ± 0.08	0.826 ± 0.008
293.15 K, x1 = 0.9604	968.66 ± 0.08	0.808 ± 0.008
303.15 K, x1 = 0.06248	817.46 ± 0.13	2.453 ± 0.024
303.15 K, x1 = 0.09976	823.53 ± 0.12	2.195 ± 0.021
303.15 K, x1 = 0.2017	839.99 ± 0.12	1.686 ± 0.016
303.15 K, x1 = 0.2898	854.09 ± 0.11	1.395 ± 0.014
303.15 K, x1 = 0.3969	871 ± 0.1	1.159 ± 0.011
303.15 K, x1 = 0.4922	885.91 ± 0.1	1.013 ± 0.01
303.15 K, x1 = 0.5941	901.64 ± 0.09	0.893 ± 0.009
303.15 K, x1 = 0.6987	917.65 ± 0.09	0.808 ± 0.008
303.15 K, x1 = 0.8039	933.63 ± 0.08	0.75 ± 0.007
303.15 K, x1 = 0.8997	948.13 ± 0.08	0.715 ± 0.007
303.15 K, x1 = 0.9608	957.42 ± 0.08	0.703 ± 0.007
313.15 K, x1 = 0.05411	808.37 ± 0.13	1.951 ± 0.019
313.15 K, x1 = 0.1042	816.28 ± 0.13	1.705 ± 0.017
313.15 K, x1 = 0.1939	830.39 ± 0.12	1.373 ± 0.014
313.15 K, x1 = 0.29	845.34 ± 0.11	1.139 ± 0.011
313.15 K, x1 = 0.406	863.19 ± 0.11	0.95 ± 0.009
313.15 K, x1 = 0.4965	876.96 ± 0.1	0.847 ± 0.008
313.15 K, x1 = 0.5957	891.9 ± 0.1	0.763 ± 0.008
313.15 K, x1 = 0.7474	914.56 ± 0.09	0.675 ± 0.007
313.15 K, x1 = 0.803	922.81 ± 0.09	0.653 ± 0.007
313.15 K, x1 = 0.8997	937.15 ± 0.08	0.628 ± 0.006
313.15 K, x1 = 0.9582	945.86 ± 0.08	0.62 ± 0.006

Reference: the NIST ThermoML archive (doi:10.1021/je1013476)
